Test results from paper PMC12478587.

Assays:
[1] = system: FTC_1_Full (DNA, aptamer) GGAGGCTCTCGGGACGACGCTGAGTCGTTGGCAAGGTATTGAGAGAGTGTCGTCCCGATGCTGCAATCGTAA; test: ITC; conditions: Na+ (PBS), Mg2+ 2 mM, 25 °C, 20 µM aptamer in cell; for binding: 200 µM compound in syringe
[2] = system: FTC_1_EAB (FTC_1_5'trunc19_3'trunc25), unlabelled (DNA, aptamer) CTGAGTCGTTGGCAAGGTATTGAGAGAG; test: ITC; conditions: Na+ (PBS), Mg2+ 2 mM, 25 °C, 20 µM aptamer in cell; for binding: 200 µM compound in syringe
[3] = system: FTC_1_EAB, E-AB sensor (DNA, aptamer) CTGAGTCGTTGGCAAGGTATTGAGAGAG; test: electrochemical aptamer-based sensor (square wave voltammetry); conditions: for binding: negligible signal 100 nM to 10 µM
[4] = system: FTC_2_Full (DNA, aptamer) GGAGGCTCTCGGGACGACCATGAGTCGTTGGTAAGGTATTAGGAAGCGGTCGTCCCGATGCTGCAATCGTAA; test: ITC; conditions: Na+ (PBS), Mg2+ 2 mM, 25 °C, 20 µM aptamer in cell, 200 µM FTC in syringe
[5] = system: FTC_1_Fluor (FTC_1_5'trunc3_3'trunc14) (DNA, aptamer) GGCTCTCGGGACGACGCTGAGTCGTTGGCAAGGTATTGAGAGAGTGTCGTCCCGA; test: fluorescence, quencher strand displacement; conditions: Na+ (PBS), Mg2+ about 1 mM; 50% human plasma; Q-Cap_1 (3'-BHQ2) displaced; 100 nM aptamer, 150 nM Q-Cap_1; apparent
[6] = system: FTC_5_Full (DNA, aptamer) GGAGGCTCTCGGGACGACGGCAAGTCGTTGGTAAGGTATTAATCTGGTGTCGTCCCGATGCTGCAATCGTAA; test: ITC; conditions: Na+ (PBS), Mg2+ 2 mM, 25 °C, 20 µM aptamer in cell, 200 µM FTC in syringe
[7] = system: FTC_1_EAB_Scramble (DNA, other) GATATGGGAGAACGCATTGCGTGGTATG; test: not stated (ITC series, Figure S7)
[8] = biological target: bovine serum albumin (BSA) (UniProt P02769 25-607); test: ITC; heat change at mole ratios <0.1; BSA as ligand; ITC: PBS + 2 mM MgCl2 (SELEX buffer pH 7.2); general ITC protocol 20 uM aptamer in cell, 200 uM target in syringe; temperature not given; conditions: protein: commercial; stem-loop, stem S1 13 bp
bovine serum albumin (BSA), sequence (P02769 25-607): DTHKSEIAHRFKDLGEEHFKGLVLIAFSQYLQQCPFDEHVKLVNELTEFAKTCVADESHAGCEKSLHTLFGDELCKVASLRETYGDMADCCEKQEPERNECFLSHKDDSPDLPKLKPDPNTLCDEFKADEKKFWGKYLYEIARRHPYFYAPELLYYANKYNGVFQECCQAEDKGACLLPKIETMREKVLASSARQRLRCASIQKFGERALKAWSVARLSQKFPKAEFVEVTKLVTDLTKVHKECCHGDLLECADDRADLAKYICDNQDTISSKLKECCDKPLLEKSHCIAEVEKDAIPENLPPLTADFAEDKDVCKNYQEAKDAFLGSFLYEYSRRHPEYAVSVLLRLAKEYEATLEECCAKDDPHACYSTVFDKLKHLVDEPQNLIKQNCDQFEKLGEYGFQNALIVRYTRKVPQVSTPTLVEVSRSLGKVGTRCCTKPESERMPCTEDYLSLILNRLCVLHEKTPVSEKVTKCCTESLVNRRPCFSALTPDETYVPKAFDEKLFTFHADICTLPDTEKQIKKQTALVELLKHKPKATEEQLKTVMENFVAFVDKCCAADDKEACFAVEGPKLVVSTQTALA

Nc1cc[nH]c(=O)n1
binding [1]: no
binding [2]: no

Nc1ccn([C@@H]2CS[C@H](CO)O2)c(=O)n1
binding ([3]; binding above 10 µM, gain 50% lower than FTC): weak

Nc1ccn([C@@H]2O[C@H](CO)[C@@H](O)[C@H]2O)c(=O)n1
binding [1]: no
binding [2]: no

Nc1nc(=O)n([C@@H]2CS[C@H](CO)O2)cc1F
binding [4]: yes
EC50 ([3]; Na+ (PBS), phosphate-buffered saline, gold electrode, Hill coefficient 1, apparent): 10.4 ± 0.6 µM
EC50 [5]: 3.536 ± 0.069 µM
dissociation constant ([1]; 200 µM FTC in syringe): 150 ± 40 nM
Kd ([2]; 200 µM FTC in syringe): 10.9 ± 0.3 µM
binding [6]: yes
binding [7]: no

Nc1nc(=O)n([C@@H]2CS[C@H](COP(=O)(O)OP(=O)(O)OP(=O)(O)O)O2)cc1F
binding ([3]; minimal binding at saturation): weak
binding [1]: no

Nc1nc(=O)n([C@@H]2O[C@H](CO)[C@@H](O)[C@H]2O)cc1F
binding [1]: no
binding [2]: no

B1: FTC_1 (taken as FTC_1_Full) (structured_DNA)
DNA: GGAGGCTCTCGGGACGACGCTGAGTCGTTGGCAAGGTATTGAGAGAGTGTCGTCCCGATGCTGCAATCGTAA
binding result [8]: binds
